In patent US20240018128A1, “PESTICIDALLY ACTIVE HETEROCYCLIC DERIVATIVES WITH SULFUR CONTAINING SUBSTITUENTS” (SYNGENTA CROP PROTECTION AG, priority 2020, published 2024):

Columns and labels:
Assay type in all cases: in vivo
[1] = system: Chilo suppressalis (striped rice stemborer); assay: Example B8: Activity against Chilo suppressalis (striped rice stemborer); conditions: 144 h, application rate 200 ppm, artificial diet treated by pipetting, L2 larvae, 6 days after infestation, read-out: control (mortality, anti-feeding effect or growth inhibition)
Experimental: Example B8: Activity Against Chilo suppressalis (Striped Rice Stemborer)
24-well microtiter plates with artificial diet were treated with aqueous test solutions prepared from 10,000 ppm DMSO stock solutions by pipetting. After drying, the plates were infested with L2 larvae (6-8 per well). The samples were assessed for mortality, anti-feeding effect, and growth inhibition in comparison to untreated samples 6 days after infestation. Control of Chilo suppressalis by a test sample is given when at least one of the categories mortality, anti-feedant effect, and growth inhibition is higher than the untreated sample.

[2] = system: Euschistus heros (neotropical brown stink bug); assay: Example B2: Activity against Euschistus heros (neotropical brown stink bug); conditions: 120 h, application rate 200 ppm, soybean leaves sprayed, N2 nymphs, 5 days after infestation, read-out: effect in at least one of the two categories (mortality or growth inhibition)
Experimental: Example B2: Activity Against Euschistus heros (Neotropical Brown Stink Bug)
Soybean leaves on agar in 24-well microtiter plates were sprayed with aqueous test solutions prepared from 10,000 ppm DMSO stock solutions. After drying the leaves were infested with N2 nymphs. The samples were assessed for mortality and growth inhibition in comparison to untreated samples 5 days after infestation.

[3] = system: Plutella xylostella (diamond back moth); assay: Example B5: Activity against Plutella xylostella (diamond back moth); conditions: 192 h, application rate 200 ppm, artificial diet treated by pipetting, eggs, 8 days after infestation, read-out: effect in at least one of the two categories (mortality or growth inhibition)
Experimental: Example B5: Activity Against Plutella xylostella (Diamond Back Moth)
24-well microtiter plates with artificial diet were treated with aqueous test solutions prepared from 10,000 ppm DMSO stock solutions by pipetting. After drying, Plutella eggs were pipetted through a plastic stencil onto a gel blotting paper and the plate was closed with it. The samples were assessed for mortality and growth inhibition in comparison to untreated samples 8 days after infestation. The following compounds gave an effect of at least 80% in at least one of the two categories (mortality or growth inhibition) at an application rate of 200 ppm: P1, P2, P4, P5, P6, P7, P9, P10, P11, P12, P13, P14, P15, P16, P17, P18.

[4] = system: Diabrotica balteata (corn root worm); assay: Example B1: Activity against Diabrotica balteata (corn root worm); conditions: 96 h, application rate 200 ppm, maize sprouts sprayed, L2 larvae, 4 days after infestation, read-out: effect in at least one of the two categories (mortality or growth inhibition)
Experimental: Example B1: Activity Against Diabrotica Balteata (Corn Root Worm)
Maize sprouts placed onto an agar layer in 24-well microtiter plates were treated with aqueous test solutions prepared from 10,000 ppm DMSO stock solutions by spraying. After drying, the plates were infested with L2 larvae (6 to 10 per well). The samples were assessed for mortality and growth inhibition in comparison to untreated samples 4 days after infestation.

[5] = system: Spodoptera littoralis (Egyptian cotton leaf worm); assay: Example B6: Activity against Spodoptera littoralis (Egyptian cotton leaf worm); conditions: foliar, 72 h, application rate 200 ppm, cotton leaf discs sprayed, L1 larvae, 3 days after infestation, read-out: control (mortality, anti-feeding effect or growth inhibition)
Experimental: Example B6: Activity Against Spodoptera littoralis (Egyptian Cotton Leaf Worm)
Cotton leaf discs were placed onto agar in 24-well microtiter plates and sprayed with aqueous test solutions prepared from 10,000 ppm DMSO stock solutions. After drying the leaf discs were infested with five L1 larvae. The samples were assessed for mortality, anti-feeding effect, and growth inhibition in comparison to untreated samples 3 days after infestation. Control of Spodoptera littoralis by a test sample is given when at least one of the categories mortality, anti-feedant effect, and growth inhibition is higher than the untreated sample.

[6] = system: Frankliniella occidentalis (western flower thrips); assay: Example B3: Activity against Frankliniella occidentalis (western flower thrips), feeding/contact activity; conditions: foliar, 168 h, application rate 200 ppm, sunflower leaf discs sprayed, population of mixed ages, 7 days after infestation
Experimental: Example B3: Activity Against Frankliniella occidentalis (Western Flower Thrips) Feeding/Contact Activity
Sunflower leaf discs were placed on agar in 24-well microtiter plates and sprayed with aqueous test solutions prepared from 10,000 DMSO stock solutions. After drying the leaf discs were infested with a Frankliniella population of mixed ages. The samples were assessed for mortality 7 days after infestation.

[7] = system: Myzus persicae (green peach aphid); assay: Example B4: Activity against Myzus persicae (green peach aphid), feeding/contact activity; conditions: foliar, 144 h, application rate 200 ppm, sunflower leaf discs sprayed, aphid population of mixed ages, 6 days after infestation
Experimental: Example B4: Activity Against Myzus persicae (Green Peach Aphid) Feeding/Contact Activity
Sunflower leaf discs were placed onto agar in a 24-well microtiter plate and sprayed with aqueous test solutions prepared from 10,000 ppm DMSO stock solutions. After drying, the leaf discs were infested with an aphid population of mixed ages. The samples were assessed for mortality 6 days after infestation.

[8] = system: Myzus persicae (green peach aphid); assay: Example B9: Activity against Myzus persicae (green peach aphid), systemic activity; conditions: 144 h, test rate 24 ppm, roots of infested pea seedlings placed into test solution, 6 days
Experimental: Example B9: Activity Against Myzus persicae (Green Peach Aphid). Systemic Activity
Roots of pea seedlings infested with an aphid population of mixed ages were placed directly into aqueous test solutions prepared from 10,000 DMSO stock solutions. The samples were assessed for mortality 6 days after placing seedlings into test solutions.

[9] = system: Bemisia tabaci (cotton white fly); assay: Example B7: Activity against Bemisia tabaci (cotton white fly), feeding/contact activity; conditions: foliar, 144 h, application rate 200 ppm, cotton leaf discs sprayed, adult white flies, 6 days after incubation
Experimental: Example B7: Activity Against Bemisia tabaci (Cotton White Fly) Feeding/Contact Activity
Cotton leaf discs were placed on agar in 24-well microtiter plates and sprayed with aqueous test solutions prepared from 10,000 ppm DMSO stock solutions. After drying the leaf discs were infested with adult white flies. The samples were checked for mortality 6 days after incubation.

CCS(=O)(=O)c1c(N2Cc3ccc(OC(F)(F)F)cc3C2=O)nc(-c2cnn(C3CC3)c2)n1C [Compound P1, 2-[2-(1-cyclopropylpyrazol-4-yl)-5-ethylsulfonyl-1-methyl-imidazol-4-yl]-6-(trifluoromethoxy)isoindolin-1-one]
≥ 80%: control at 200 ppm [1] | percent effect (mortality or growth inhibition) at 200 ppm [2] | effect (mortality or growth inhibition) at 200 ppm [3] | mortality or growth inhibition at 200 ppm [4] | control at 200 ppm [5] | mortality at 200 ppm [6] | mortality at 200 ppm [7]

CCS(=O)(=O)c1c(N2Cc3ncc(C(F)(F)F)cc3C2=O)nc(-c2cnn(CC(F)(F)F)c2)n1C [Compound P10, 6-[5-ethylsulfonyl-1-methyl-2-[1-(2,2,2-trifluoroethyl)pyrazol-4-yl]imidazol-4-yl]-3-(trifluoromethyl)-7H-pyrrolo[3,4-b]pyridin-5-one]
≥ 80%: control at 200 ppm [1] | percent effect (mortality or growth inhibition) at 200 ppm [2] | effect (mortality or growth inhibition) at 200 ppm [3] | mortality or growth inhibition at 200 ppm [4] | control at 200 ppm [5] | mortality at 200 ppm [7] | mortality at 24 ppm [8]

CCS(=O)(=O)c1c(N2Cc3ncc(C(F)(F)F)cc3C2=O)nc(-c2cnn(C(F)F)c2)n1C [Compound P13, 6-[2-[1-(difluoromethyl)pyrazol-4-yl]-5-ethylsulfonyl-1-methyl-imidazol-4-yl]-3-(trifluoromethyl)-7H-pyrrolo[3,4-b]pyridin-5-one]
≥ 80%: control at 200 ppm [1] | percent effect (mortality or growth inhibition) at 200 ppm [2] | effect (mortality or growth inhibition) at 200 ppm [3] | mortality or growth inhibition at 200 ppm [4] | control at 200 ppm [5] | mortality at 200 ppm [7] | mortality at 24 ppm [8]

CCS(=O)(=O)c1c(N2Cc3ncc(C(F)(F)F)cc3C2=O)nc(C2CC2)n1C [Compound P17, 6-(2-cyclopropyl-5-ethylsulfonyl-1-methyl-imidazol-4-yl)-3-(trifluoromethyl)-7H-pyrrolo[3,4-b]pyridin-5-one]
≥ 80%: control at 200 ppm [1] | effect (mortality or growth inhibition) at 200 ppm [3] | mortality or growth inhibition at 200 ppm [4] | control at 200 ppm [5] | mortality at 200 ppm [7] | mortality at 24 ppm [8] | mortality at 200 ppm [9]
